Assay results from patent US20120065261A1, “Creatine compositions for skin treatment” (Avicena Group, Inc., priority 2006, published 2012).

Experiments:
human dermal fibroblasts = assay: Mitochondrial metabolism in human dermal fibroblast cultures (MTT assay); format: cell-based; conditions: for inhibition of mitochondrial metabolism / stimulatory effect on mitochondrial metabolism / stimulation of mitochondrial metabolism: freshly prepared; for inhibition of mitochondrial metabolism: 100 μg/mL and 1000 μg/mL; for stimulatory effect on mitochondrial metabolism: concentrations tested; for effect on mitochondrial metabolism: preincubated solutions (pH 4.0, five days)
Protocol: The purpose of this assay was to determine the effect creatine ascorbate, creatine monohydrate and creatine pyruvate on the mitochondrial metabolism on the entire cell culture using an MTT assay. The MTT assay measures the activity of succinate dehydrogenase, a key enzyme in the respiratory electron transport chain in mitochondria.
Two sets of aqueous solutions of 10 mg/mL of creatine ascorbate, creatine monohydrate, creatine pyruvate, ascorbic acid and magnesium ascorbyl phosphate were prepared in Type I water. The first set of solutions were prepared immediately before being added to cell cultures. The second set of solutions were preincubated at pH 4.0 (±0.1) five days, then the solutions were lyophilized and the substrates were redissolved in water at 10 mg/mL prior to being added to the cell cultures. Normal human dermal fibroblasts (passage 5, lot number 7F1254, Cambrex, Walkersville, Md.) were seeded in a 96-well plate in phenol red-free DMEM medium (high glucose) containing 2.5% fetal calf serum at 2500 cells per well and test materials, both freshly prepared solutions and preincubated solutions, were added 24 hours later. At the end of the incubation period MTT (3-(4,5-dimethylthiazol-2-yl)-2,5-diphenyltetrazolium bromide) was added to the cell cultures and incubation was pursued for an additional three hours. Culture media were then discarded, the cells were rinsed and the intracellular MTT reduction product, formazan, was solubilized in ethanol/acetic acid. The colorimetric signal proportional to the mitochondrial activity in the cell cultures was measured with a microplate spectrophotometer at 570 nm. For references describing this method, see Berridge et al. “Arch. Biochem. Biophys.” 303:474-482 (1993) and Murimaki et al. “Biochem. Pharmacol.” 44:2191-2197 (1992).

[1] = system: p53 expression in human dermal fibroblasts; assay: p53 expression induced by UVB irradiation of human dermal fibroblasts (sandwich ELISA); format: cell-based; conditions: 50 μg/ml; UVB 0.15 mW/cm^2; 4 hours accumulation
Protocol: Confluent human dermal fibroblasts were trypsinized, counted and plated at 750,000 cells/well in eight 6-well plates in phenol-free DMEM medium (4 g/L glucose) supplemented with 5% serum. After three hours, creatine ascorbate, creatine monohydrate, creatine pyruvate, ascorbic acid and magnesium ascorbyl phosphate in a concentration of 50 μg/ml were added and cells were incubated overnight at 37° C. in 5% CO2 atmosphere. After 24 hours, p53 protein was induced by UVB irradiation at 0.15 mW/cm^2 for […] and was allowed to accumulate for 4 hours. The cells were then lyzed and total p53 was quantified by sandwich ELISA. The p53 values were standardized with regard to total protein values determined with Bradford reagent. For a description of this assay, see Carlisle et al. “Toxicological Sciences” 55:60 (2000).

[2] = system: Clostridium collagenase IV; assay: Metalloproteinase (collagenase) activity, Enzcheck kit with quenched fluorescent gelatin; format: biochemical; conditions: after incubation of 60 minutes
Protocol: Metalloproteinase (collagenase) activity was measured with Enzcheck kit from Molecular Probes using quenched fluorescent gelatin and Clostridium collagenase IV, a generic collagenase. Creatine ascorbate, creatine monohydrate, creatine pyruvate, ascorbic acid and magnesium ascorbyl phosphate, in concentrations of 1000 μg/mL, 100 μg/mL and 10 μg/mL, were incubated in the presence of a collagenase substrate (quenched fluorescing-linked gelatin) and in the presence of the proteolytic enzyme. Phenantroline, a potent metalloproteinase inhibitor was used as a positive control. The kinetics of the release of the digested, fluorescent gelatin were measured at excitation/emission wavelengths of 485/530 nm.

[3] = Stability of aqueous solutions at pH 4.0 (HPLC); format: physicochemical; conditions: 10 mg/mL, pH 4.0, 5 days at room temperature
Protocol: Aqueous solutions of 10 mg/mL of creatine ascorbate, creatine monohydrate, creatine pyruvate, ascorbic acid and magnesium ascorbyl phosphate were prepared in Type I water and brought to pH 4.0 (±0.1) by adding acetic acid (creatine ascorbate, creatine monohydrate and magnesium ascorbyl phosphate) or sodium hydroxide (ascorbic acid and creatine pyruvate). The solutions were incubated for 5 days at room temperature and were subsequently lyophilized, redissolved within 60 minutes of analysis and analyzed by isocratic HPLC on a C18 RF column (250 mm×4.6 mm) at 1 mL/min.

[4] = system: type I collagen levels in human dermal fibroblasts; assay: Type I collagen in human dermal fibroblast conditioned medium (sandwich ELISA); format: cell-based; conditions: for levels of type I collagen: freshly prepared solutions
Protocol: Normal human dermal fibroblasts (passage 5, lot number 7F1245, Cambrix, Walkersville, Md.) were seeded in a 96-well plate in DMEM medium (high glucose) containing 5% fetal calf serum and grown to late subconfluent stage. Two sets of aqueous solutions of 10 mg/mL of creatine ascorbate, creatine monohydrate, creatine pyruvate, ascorbic acid and magnesium ascorbyl phosphate were prepared in Type I water. The first set of solutions were prepared immediately before being added to cell cultures. The second set of solutions were preincubated at pH 4.0 (±0.1) five days, then the solutions were lyophilized and the substrates were redissolved in water at 10 mg/mL prior to being added to the cell cultures. Both the freshly prepared solutions and the solutions of preincubated test materials were administered to the cells, and cell culture conditioned media was harvested 5 days after the start of the experiment and tested for type I collagen by sandwich ELISA using affinity purified antibodies, followed by streptavidin-avidin-HRP conjugate and ABTS, according to standard ELISA protocol. The colorimetric signal proportional to collagen content was measured with a microplate spectrophotometer at 405 nm. For references describing this method, see Dobek et al. “J. Dermatol. Sci.” 8:18 (1994) and Zhao et al. “Phytomedicine” 12:132 (2005).

[5] = system: UV-induced lipid peroxidation; assay: UV-induced lipid peroxidation of lecithin dispersions (TBARS); format: biochemical; conditions: 500 μg/mL; UVB irradiation 3 hours
Protocol: Test materials were added to dispersions of lecithin (a natural phospholipid) and irradiated with UVB light (11,000 μW/cm^2 at the source). After 3 hours, trichloroacetic acid and thiobarbituric acids were added and the concentration of Thiobarbituric Acid Reactive Substance (TBARS), such as malondialdehyde, was measured spectroscopically (malonaldehyde is a breakdown product generated spontaneously from oxidized lipid) at 550 nm using an UV microplate reader. For references describing this method, see Pelle et al. “Arch. Biochem. Biophys.” 283:234-40 (1990); Wang et al. “J. Ethnopharmacol.” 82:169-175 (2002).

Mushroom tyrosinase = assay: Tyrosinase activity in vitro (L-Dopa substrate); format: biochemical; conditions: for inhibition of tyrosinase activity compared to the control: 5 μg/mL
Protocol: Tyrosinase activity was measured according to the method described by Pomerantz “Biochem. Biophys. Res. Commun.” 16(2):188-194 (1964). Mushroom tyrosinase stock solution was prepared in PBS at 2000 U/mL and stored at […] in 1 mL aliquots. Final concentration was 5 U/well (25 U/mL). Creatine ascorbate, creatine monohydrate, creatine pyruvate, ascorbic acid and magnesium ascorbyl phosphate were dissolved in PBS and further dilutions were made with Type I water. L-Dopa stock solution was 20 mM. The tyrosinase substrate was prepared in PBS. The assays were performed in a 96-well microtiter plates and read at 490 nm.

[6] = highest concentration, 1000 μg/mL

Compound	inhibition of mitochondrial metabolism (human dermal fibroblasts)	stimulatory effect on mitochondrial metabolism (human dermal fibroblasts)	effect on p53 expression induced by UVB irradiation [1]	inhibition of collagenase activity compared to the control [2]	loss of the absorbance peak / decrease of absorption [3] [%]	levels of type I collagen ([4]; 10 μg/mL and 100 μg/mL)	levels of type I collagen [4, 6]	effect on mitochondrial metabolism (human dermal fibroblasts)	inhibition of tyrosinase activity compared to the control (Mushroom tyrosinase)	also measured
O=C1O[C@H]([C@@H](O)CO)C(O)=C1O [ascorbic acid, reference compound]	inhibited mitochondrial metabolism	did not have a stimulatory effect	no effect	39%	28					inhibitory effect on mitochondrial metabolism (human dermal fibroblasts; preincubated, concentration not given): 24%
CN(CC(=O)O)C(=N)N.O [creatine monohydrate]			significantly inhibited	Neither creatine monohydrate nor magnesium ascorbyl phosphate showed any inhibitory activity		moderately increased	better than creatine ascorbate and ascorbic acid	stimulated mitochondrial metabolism, although not to the extent of the freshly prepared creatine monohydrate		stimulation of mitochondrial metabolism (human dermal fibroblasts; 10 μg/mL): 0%; stimulation of mitochondrial metabolism (human dermal fibroblasts; 100 μg/mL): 15%; stimulation of mitochondrial metabolism (human dermal fibroblasts; 1000 μg/mL): 28%
O=C1O[C@H]([C@@H](O)CO)C([O-])=C1OP(=O)([O-])[O-].O=C1O[C@H]([C@@H](O)CO)C([O-])=C1OP(=O)([O-])[O-].[Mg+2].[Mg+2].[Mg+2] [magnesium ascorbyl phosphate, reference compound]		greatest stimulatory activity	significantly inhibited	Neither creatine monohydrate nor magnesium ascorbyl phosphate showed any inhibitory activity				exhibited stimulation		levels of type I collagen ([4]; all concentrations, 5 days): large increase; stimulation of type I collagen ([4]; results of both assays (fresh and preincubated)): strong stimulation
creatine ascorbate	inhibited mitochondrial metabolism	did not have a stimulatory effect	significantly inhibited	11.5%		significantly increased	significantly lower	superior to preincubated ascorbic acid	26%	inhibition of lipid peroxidation [5]: 21%; stimulation of type I collagen compared with reference substances ([4]; 100 μg/mL): comparable to that of magnesium ascorbyl phosphate and better than ascorbic acid; stimulation of type I collagen levels above the non-treated control (water) ([4]; dose-dependent, conclusion of both assays (fresh and preincubated)): about 50%; tyrosinase inhibitory activity compared with reference substances (Mushroom tyrosinase): lower than the activity of ascorbic acid and was similar to the activity of magnesium ascorbyl phosphate; inhibitory effect on the tyrosinase activity (Mushroom tyrosinase; 500 μg/mL and 50 μg/mL): significant inhibitory effect; degradation in aqueous solution [3]: minor to no degradation
creatine pyruvate	17%		significantly inhibited	27%	42	moderately increased	better than creatine ascorbate and ascorbic acid	not to be inhibitory	no inhibition	inhibition of tyrosinase activity (Mushroom tyrosinase; 50 μg/mL): 10%; inhibition of tyrosinase activity (Mushroom tyrosinase; 500 μg/mL): 100%
